Results: US7423159B2, “Agent for preventing or treating neuropathy” (Takeda Pharmaceutical Company Limited, priority 2002, dated 2008)

Compound	melting point
CCC(=O)NCc1ccc(NC(=O)/C=C/c2cnn(C)c2-c2ccc(F)cc2)cc1 [Example 138, (2E)-3-[5-(4-fluorophenyl)-1-methyl-1H-pyrazol-4-yl]-N-{4-[(propionylamino)methyl]phenyl}acrylamide]	271 to 272 °C
CC(C)C(=O)NCc1ccc(NC(=O)/C=C/c2cnn(C)c2-c2ccc(F)cc2)cc1 [Example 139, (2E)-3-[5-(4-Fluorophenyl)-1-methyl-1H-pyrazol-4-yl]-N-{4-[(isobutyrylamino)methyl]phenyl}acrylamide]	258 to 259 °C
CC(C)CC(=O)NCc1ccc(NC(=O)/C=C/c2cnn(C)c2-c2ccc(F)cc2)cc1 [Example 141, (2E)-3-[5-(4-Fluorophenyl)-1-methyl-1H-pyrazol-4-yl]-N-(4-{[(3-methylbutanoyl)amino]methyl}phenyl)acrylamide]	226 to 227 °C
Cn1ncc(/C=C/C(=O)Nc2ccc(CNC(=O)c3ccccc3)cc2)c1-c1ccc(F)cc1 [Example 142, N-[4-({(2E)-3-[5-(4-Fluorophenyl)-1-methyl-1H-pyrazol-4-yl]prop-2-enoyl}amino)benzyl]benzamide]	250 to 251 °C
CN(C)C(=O)Cc1ccc(NC(=O)/C=C/c2cnn(C)c2-c2ccc(F)cc2)cc1 [Example 143, (2E)-N-{4-[2-(dimethylamino)-2-oxoethyl]phenyl}-3-[5-(4-fluorophenyl)-1-methyl-1H-pyrazol-4-yl]acrylamide]	209 to 210 °C
Cn1ncc(/C=C/C(=O)Nc2ccc(CO)cc2)c1-c1ccc(F)cc1 [Example 153, (2E)-3-[5-(4-Fluorophenyl)-1-methyl-1H-pyrazol-4-yl]-N-[4-(hydroxymethyl)phenyl]acrylamide]	117 to 118 °C
Cn1ncc(/C=C/C(=O)Nc2ccc(CN3C(=O)CNC3=O)cc2)c1-c1ccc(F)cc1 [Example 157, (2E)-N-{4-[(2,5-Dioxo-1-imidazolidinyl)methyl]phenyl}-3-[5-(4-fluorophenyl)-1-methyl-1H-pyrazol-4-yl]acrylamide]	249 to 250 °C
Cn1ncc(/C=C/C(=O)Nc2ccc(CN3C(=O)CCCC3=O)cc2)c1-c1ccc(F)cc1 [Example 158, (2E)-N-{4-[(2,6-Dioxo-1-piperidinyl)methyl]phenyl}-3-[5-(4-fluorophenyl)-1-methyl-1H-pyrazol-4-yl]acrylamide]	218 to 220 °C
CC(C)c1nccn1Cc1ccc(NC(=O)/C=C/c2cnn(C)c2-c2ccc(F)cc2)cc1 [Example 162, (2E)-3-[5-(4-Fluorophenyl)-1-methyl-1H-pyrazol-4-yl]-N-{4-[(2-isopropyl-1H-imidazol-1-yl)methyl]phenyl}acrylamide]	271 to 272 °C
COC(=O)c1ncnn1Cc1ccc(NC(=O)/C=C/c2cnn(C)c2-c2ccc(F)cc2)cc1 [Example 164, Methyl 1-[4-({(2E)-3-[5-(4-fluorophenyl)-1-methyl-1H-pyrazol-4-yl]prop-2-enoyl}amino)benzyl]-1H-1,2,4-triazole-5-carboxylate]	203 to 205 °C
CC(=O)c1ccc(NC(=O)/C=C/c2cnn(C)c2-c2ccc(F)cc2)cc1 [Example 165, (2E)-N-(4-Acetylphenyl)-3-[5-(4-fluorophenyl)-1-methyl-1H-pyrazol-4-yl)acrylamide]	204 to 205 °C
CC(=O)Nc1ccc(NC(=O)/C=C/c2cnn(C)c2-c2ccc(F)cc2)cc1 [Example 166, (2E)-N-[4-(Acetylamino)phenyl]-3-[5-(4-fluorophenyl)-1-methyl-1H-pyrazol-4-yl]acrylamide]	281 to 282 °C
Cn1ncc(/C=C/C(=O)Nc2ccc(CCO)cc2)c1-c1ccc(F)cc1 [Example 167, (2E)-3-[5-(4-Fluorophenyl)-1-methyl-1H-pyrazol-4-yl]-N-[4-(2-hydroxyethyl)phenyl]acrylamide]	198 to 200 °C
Cn1ncc(/C=C/C(=O)Nc2cccc(CO)c2)c1-c1ccc(F)cc1 [Example 169, (2E)-3-[5-(4-Fluorophenyl)-1-methyl-1H-pyrazol-4-yl]-N-[3-(hydroxymethyl)phenyl)acrylamide]	130 to 132 °C
Cn1ncc(/C=C/C(=O)Nc2ccc(CNC(=O)OC(C)(C)C)cc2)c1-c1ccc(F)cc1 [Example 170, tert-Butyl 4-({(2E)-3-[5-(4-fluorophenyl)-1-methyl-1H-pyrazol-4-yl]prop-2-enoyl]amino)benzylcarbamate]	222 to 223 °C
CCc1cn(Cc2ccc(NC(=O)/C=C/c3cnn(C)c3-c3ccc(F)cc3)cc2)cn1 [Example 171, (2E)-N-{4-[(4-Ethyl-1H-imidazol-1-yl)methyl]phenyl}-3-[5-(4-fluorophenyl)-1-methyl-1H-pyrazol-4-yl]acrylamide]	224 to 226 °C
Cc1cc2ncn(Cc3ccc(NC(=O)/C=C/c4cnn(C)c4-c4ccc(F)cc4)cc3)c2cc1C [Example 172, (2E)-N-(4-[(5,6-Dimethyl-1H-benzimidazol-1-yl)methyl]phenyl}-3-[5-(4-fluorophenyl)-1-methyl-1H-pyrazol-4-yl]acrylamide]	279 to 280 °C
Cc1nc2ccccc2n1Cc1ccc(NC(=O)/C=C/c2cnn(C)c2-c2ccc(F)cc2)cc1 [Example 173, (2E)-3-[5-(4-Fluorophenyl)-1-methyl-1H-pyrazol-4-yl]-N-{4-[(2-methyl-1H-benzimidazol-1-yl)methyl]phenyl}acrylamide]	263 to 264 °C
Cn1ncc(/C=C/C(=O)Nc2ccc(C(O)c3ccccc3)cc2)c1-c1ccc(F)cc1 (stereo not shown) [Example 174, (2E)-3-[5-(4-Fluorophenyl)-1-methyl-1H-pyrazol-4-yl]-N-{4-[hydroxy(phenyl)methyl]phenyl}acrylamide]	192 to 195 °C
Cn1ncc(/C=C/C(=O)Nc2ccc(Cc3ccccc3)cc2)c1-c1ccc(F)cc1 [Example 175, (2E)-N-(4-Benzylphenyl)-3-[5-(4-fluorophenyl)-1-methyl-1H-pyrazol-4-yl]acrylamide]	226 to 227 °C
Cn1ncc(/C=C/C(=O)Nc2ccc(Cn3ncc4ccccc43)cc2)c1-c1ccc(F)cc1 [Example 176, (2E)-3-[5-(4-Fluorophenyl)-1-methyl-1H-pyrazol-4-yl]-N-[4-(1H-indazol-1-ylmethyl)phenyl]acrylamide]	146 to 148 °C
Cn1ncc(/C=C/C(=O)Nc2ccc(Cn3nnc4ccccc43)cc2)c1-c1ccc(F)cc1 [Example 177, (2E)-N-[4-(1H-1,2,3-Benzotriazol-1-ylmethyl)phenyl]-3-[5-(4-fluorophenyl)-1-methyl-1H-pyrazol-4-yl]acrylamide]	226 to 227 °C
Cn1ncc(/C=C/C(=O)Nc2ccc(Cn3cc4ccccc4n3)cc2)c1-c1ccc(F)cc1 [Example 178, (2E)-3-[5-(4-Fluorophenyl)-1-methyl-1H-pyrazol-4-yl]-N-[4-(2H-indazol-2-ylmethyl)phenyl]acrylamide]	231 to 232 °C
Cn1ncc(/C=C/C(=O)Nc2ccc(Cn3nc4ccccc4n3)cc2)c1-c1ccc(F)cc1 [Example 179, (2E)-N-[4-(2H-1,2,3-Benzotriazol-2-ylmethyl)phenyl]-3-[5-(4-fluorophenyl)-1-methyl-1H-pyrazol-4-yl]acrylamide]	222 to 223 °C
CCOC(=O)c1ccc(NC(=O)/C=C/c2cnn(C)c2-c2ccc(F)cc2)cc1 [Example 180, ethyl 4-({(2E)-3-[5-(4-fluorophenyl)-1-methyl-1H-pyrazol-4-yl]prop-2-enoyl}amino)benzoate]	202 to 203 °C
